Laboratory results from ChEMBL document CHEMBL1201861, “Genomics of Drug Sensitity in Cancer screening data, Wellcome Trust Sanger Institute”.

How the values were obtained:
Assay in all cases: cells
KINGS-1 = format: functional, cell-based, Homo sapiens; conditions: Homo sapiens, KINGS-1;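 further: cell viability assay measuring suppression of KINGS-1 cell growth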
Description: SANGER: Inhibition of human KINGS-1 cell growth in a cell viability assay.

LU-139 = format: functional, cell-based, Homo sapiens; conditions: Homo sapiens, LU-139
Description: SANGER: Inhibition of human LU-139 cell growth in a cell viability assay.

IST-MES1 = format: functional, cell-based, Homo sapiens; conditions: Homo sapiens, IST-MES1;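 further: growth inhibition of IST-MES1 cells, measured with a cell viability assay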
Description: SANGER: Inhibition of human IST-MES1 cell growth in a cell viability assay.

GOTO = format: functional, cell-based, Homo sapiens; conditions: Homo sapiens, GOTO;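 further: growth inhibition of GOTO cells, read out by a cell viability assay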
Description: SANGER: Inhibition of human GOTO cell growth in a cell viability assay.

LS-123 = format: functional, cell-based, Homo sapiens; conditions: Homo sapiens, LS-123
Description: SANGER: Inhibition of human LS-123 cell growth in a cell viability assay.

EW-1 = format: functional, cell-based, Homo sapiens; conditions: Homo sapiens, EW-1;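 further: growth inhibition of the human EW-1 cell line, read out by a cell viability assay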
Description: SANGER: Inhibition of human EW-1 cell growth in a cell viability assay.

MZ7-mel = format: functional, cell-based, Homo sapiens; conditions: Homo sapiens, MZ7-mel;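 further: growth inhibition of human MZ7-mel cells, measured by a cell viability assay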
Description: SANGER: Inhibition of human MZ7-mel cell growth in a cell viability assay.

GAK = format: functional, cell-based, Homo sapiens; conditions: Homo sapiens, GAK;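 further: cell growth inhibition read out by a cell viability assay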
Description: SANGER: Inhibition of human GAK cell growth in a cell viability assay.

OS-RC-2 = format: functional, cell-based, Homo sapiens; conditions: Homo sapiens, OS-RC-2;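 further: growth inhibition of human OS-RC-2 cells, measured by a cell viability assay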
Description: SANGER: Inhibition of human OS-RC-2 cell growth in a cell viability assay.

SHP77 = format: functional, cell-based, Homo sapiens, SHP-77; conditions: Homo sapiens, SHP77;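 further: growth inhibition of human SHP-77 cells measured by a cell viability assay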
Description: SANGER: Inhibition of human SHP-77 cell growth in a cell viability assay.

GI-1 = format: functional, cell-based, Homo sapiens; conditions: Homo sapiens, GI-1;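 further: growth inhibition of human GI-1 cells, measured with a cell viability readout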
Description: SANGER: Inhibition of human GI-1 cell growth in a cell viability assay.

NCI-H510A = format: functional, cell-based, Homo sapiens; conditions: Homo sapiens, NCI-H510A;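 further: growth inhibition of NCI-H510A cells, read out with a cell viability assay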
Description: SANGER: Inhibition of human NCI-H510A cell growth in a cell viability assay.

MEG-01 = format: functional, cell-based, Homo sapiens; conditions: Homo sapiens, MEG-01;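 further: growth inhibition of MEG-01 cells, read out by a cell viability assay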
Description: SANGER: Inhibition of human MEG-01 cell growth in a cell viability assay.

MFH-ino = format: functional, cell-based, Homo sapiens; conditions: Homo sapiens, MFH-ino;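 further: growth inhibition of human MFH-ino cells, read out by a cell viability assay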
Description: SANGER: Inhibition of human MFH-ino cell growth in a cell viability assay.

HDLM-2 = format: functional, cell-based, Homo sapiens; conditions: Homo sapiens, HDLM-2;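 further: cell viability assay measuring suppression of HDLM-2 proliferation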
Description: SANGER: Inhibition of human HDLM-2 cell growth in a cell viability assay.

SW872 = format: functional, cell-based, Homo sapiens; conditions: Homo sapiens, SW872;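 further: growth inhibition of SW872 cells, read out by a viability assay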
Description: SANGER: Inhibition of human SW872 cell growth in a cell viability assay.

CTB-1 = format: functional, cell-based, Homo sapiens; conditions: Homo sapiens, CTB-1
Description: SANGER: Inhibition of human CTB-1 cell growth in a cell viability assay.

DEL = format: functional, cell-based, Homo sapiens; conditions: Homo sapiens, DEL;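 further: growth inhibition of the human DEL cell line, read out with a cell viability assay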
Description: SANGER: Inhibition of human DEL cell growth in a cell viability assay.

MOLT-16 = format: functional, cell-based, Homo sapiens; conditions: Homo sapiens, MOLT-16;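 further: growth inhibition of human MOLT-16 cells, read out with a cell viability assay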
Description: SANGER: Inhibition of human MOLT-16 cell growth in a cell viability assay.

UACC-257 = format: functional, cell-based, Homo sapiens; conditions: Homo sapiens, UACC-257
Description: SANGER: Inhibition of human UACC-257 cell growth in a cell viability assay.

MZ2-MEL = format: functional, cell-based, Homo sapiens; conditions: Homo sapiens, MZ2-MEL;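 further: growth inhibition of MZ2-MEL cells read out with a cell viability assay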
Description: SANGER: Inhibition of human MZ2-MEL cell growth in a cell viability assay.

ES5 = format: functional, cell-based, Homo sapiens; conditions: Homo sapiens, ES5;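 further: growth inhibition of human ES5 cells, read out by a cell viability assay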
Description: SANGER: Inhibition of human ES5 cell growth in a cell viability assay.

OMC-1 = format: functional, cell-based, Homo sapiens; conditions: Homo sapiens, OMC-1;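 further: growth inhibition of the OMC-1 cell line, measured by a cell viability assay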
Description: SANGER: Inhibition of human OMC-1 cell growth in a cell viability assay.

DB = format: functional, cell-based, Homo sapiens; conditions: Homo sapiens, DB
Description: SANGER: Inhibition of human DB cell growth in a cell viability assay.

NCI-N87 = format: functional, cell-based, Homo sapiens; conditions: Homo sapiens, NCI-N87;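 further: growth inhibition of human NCI-N87 cells, read out with a cell viability assay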
Description: SANGER: Inhibition of human NCI-N87 cell growth in a cell viability assay.

JAR = format: functional, cell-based, Homo sapiens; conditions: Homo sapiens, JAR;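 further: growth inhibition of human JAR cells determined with a cell viability assay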
Description: SANGER: Inhibition of human JAR cell growth in a cell viability assay.

SK-N-DZ = format: functional, cell-based, Homo sapiens; conditions: Homo sapiens, SK-N-DZ;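 further: growth inhibition of the cancer cell line, read out through a viability assay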
Description: SANGER: Inhibition of human SK-N-DZ cell growth in a cell viability assay.

no-10 = format: functional, cell-based, Homo sapiens; conditions: Homo sapiens;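 further: growth inhibition of no-10 cells, read out with a cell viability assay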
Description: SANGER: Inhibition of human no-10 cell growth in a cell viability assay.

EKVX = format: functional, cell-based, Homo sapiens; conditions: Homo sapiens, EKVX;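 further: growth inhibition of human EKVX cells, read out with a cell viability assay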
Description: SANGER: Inhibition of human EKVX cell growth in a cell viability assay.

NCI-H446 = format: functional, cell-based, Homo sapiens; conditions: Homo sapiens, NCI-H446;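 further: growth inhibition of NCI-H446 cells determined by a cell viability assay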
Description: SANGER: Inhibition of human NCI-H446 cell growth in a cell viability assay.

NTERA-2-cl-D1 = format: functional, cell-based, Homo sapiens; conditions: Homo sapiens, NTERA-2-cl-D1;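 further: inhibition of cell growth, measured with a cell viability assay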
Description: SANGER: Inhibition of human NTERA-S-cl-D1 cell growth in a cell viability assay.

HuTu80 = format: functional, cell-based, Homo sapiens, HUTU-80; conditions: Homo sapiens, HuTu80;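 further: growth inhibition of HuTu80 human cells, determined with a cell viability readout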
Description: SANGER: Inhibition of human HUTU-80 cell growth in a cell viability assay.

JVM-3 = format: functional, cell-based, Homo sapiens; conditions: Homo sapiens, JVM-3;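 further: growth inhibition of human JVM-3 cells, read out with a cell viability assay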
Description: SANGER: Inhibition of human JVM-3 cell growth in a cell viability assay.

SK-MEL-2 = format: functional, cell-based, Homo sapiens; conditions: Homo sapiens, SK-MEL-2;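 further: growth inhibition of human SK-MEL-2 cells measured with a cell viability assay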
Description: SANGER: Inhibition of human SK-MEL-2 cell growth in a cell viability assay.

ACN = format: functional, cell-based, Homo sapiens; conditions: Homo sapiens, ACN;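 further: growth inhibition of the human ACN cell line, read out via cell viability testing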
Description: SANGER: Inhibition of human ACN cell growth in a cell viability assay.

NCI-H1648 = format: functional, cell-based, Homo sapiens; conditions: Homo sapiens, NCI-H1648;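 further: cell viability assay measuring inhibition of NCI-H1648 cell growth, from the Sanger screening data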
Description: SANGER: Inhibition of human NCI-H1648 cell growth in a cell viability assay.

HCC 2998 = format: functional, cell-based, Homo sapiens; conditions: Homo sapiens, HCC 2998;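 further: growth inhibition of human HCC2998 cells, measured with a cell viability read-out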
Description: SANGER: Inhibition of human HCC2998 cell growth in a cell viability assay.

COLO-320-HSR = format: functional, cell-based, Homo sapiens; conditions: Homo sapiens, COLO-320-HSR;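 further: growth inhibition of COLO-320-HSR cells, determined with a cell viability assay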
Description: SANGER: Inhibition of human COLO-320-HSR cell growth in a cell viability assay.

NCI-H720 = format: functional, cell-based, Homo sapiens; conditions: Homo sapiens, NCI-H720;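 further: growth inhibition of human NCI-H720 cells determined by a cell viability assay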
Description: SANGER: Inhibition of human NCI-H720 cell growth in a cell viability assay.

NCI-H226 = format: functional, cell-based, Homo sapiens; conditions: Homo sapiens, NCI-H226;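 further: cell viability read-out used to gauge growth inhibition of the cells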
Description: SANGER: Inhibition of human NCI-H226 cell growth in a cell viability assay.

MFM-223 = format: functional, cell-based, Homo sapiens; conditions: Homo sapiens, MFM-223
Description: SANGER: Inhibition of human MFM-223 cell growth in a cell viability assay.

OCI-AML2 = format: functional, cell-based, Homo sapiens; conditions: Homo sapiens, OCI-AML2;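 further: growth inhibition of OCI-AML2 cells, read out with a cell viability assay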
Description: SANGER: Inhibition of human OCI-AML2 cell growth in a cell viability assay.

LC-2-ad = format: functional, cell-based, Homo sapiens; conditions: Homo sapiens, LC-2-ad;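 further: growth inhibition of human LC-2-ad cells, read out with a cell viability assay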
Description: SANGER: Inhibition of human LC-2-ad cell growth in a cell viability assay.

NEC8 = format: functional, cell-based, Homo sapiens; conditions: Homo sapiens, NEC8;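 further: growth inhibition of human NEC8 cells, read out by a cell viability assay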
Description: SANGER: Inhibition of human NEC8 cell growth in a cell viability assay.

L-363 = format: functional, cell-based, Homo sapiens; conditions: Homo sapiens, L-363
Description: SANGER: Inhibition of human L-363 cell growth in a cell viability assay.

KNS-42 = format: functional, cell-based, Homo sapiens; conditions: Homo sapiens, KNS-42;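 further: growth inhibition of KNS-42 cells, read out with a cell viability assay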
Description: SANGER: Inhibition of human KNS-42 cell growth in a cell viability assay.

TE-12 = format: functional, cell-based, Homo sapiens; conditions: Homo sapiens, TE-12;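 further: growth inhibition of TE-12 cells, read out by a cell viability assay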
Description: SANGER: Inhibition of human TE-12 cell growth in a cell viability assay.

A388 = format: functional, cell-based, Homo sapiens; conditions: Homo sapiens, A388;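 further: growth inhibition of human A388 cells, read out with a cell viability assay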
Description: SANGER: Inhibition of human A388 cell growth in a cell viability assay.

Measured: IC50

O=C(O)c1ccc(-c2c[nH]c3ncc(-c4ccccc4)cc23)cc1C1CCCC1 [GSK-650394]
3550 nM: NTERA-2-cl-D1
5110 nM: DEL
5260 nM: MEG-01
1990 nM: MFH-ino | TE-12
3520 nM: MOLT-16
7600 nM: A388
1300 nM: HuTu80
6610 nM: MZ2-MEL
13700 nM: SW872
15600 nM: NCI-H226
> 16000 nM: all other assays above

CCC/C=C/C=C/C(=O)O[C@H]1/C(=C/C(=O)OC)C[C@H]2C[C@H]([C@@H](C)O)OC(=O)C[C@H](O)C[C@@H]3C[C@H](OC(C)=O)C(C)(C)[C@](O)(C[C@@H]4C/C(=C/C(=O)OC)C[C@H](/C=C/C(C)(C)[C@]1(O)O2)O4)O3 [BRYOSTATIN 1]
> 8 nM: all assays above
